{
  "source": "ChEMBL document CHEMBL3785039",
  "about": "“The pharmacokinetics of diclofenac sodium following intravenous and oral administration” (Eur J Clin Pharmacol, 1979)",
  "assay_type_in_all_cases": "ADME, organism-based",
  "key": {"[1]": {"assay": "Slow disposition half life in healthy subject (7 subjects) at 50 mg, iv by three compartment open model", "settings": "human, in vivo, read-out: alphat1/2 (converted)"}, "[2]": {"assay": "Tmax in healthy subject (7 subjects) at 50 mg, po administered as single dose", "settings": "human, in vivo"}, "[3]": {"tested_on": "Homo sapiens", "assay": "First order inter-compartment transfer rate constant from tissue to central compartment in healthy subject (7 subjects) at 50 mg, iv by three compartment open model", "settings": "in vivo"}, "[4]": {"tested_on": "Homo sapiens", "assay": "Fast disposition half life in healthy subject (7 subjects) at 50 mg, iv by three compartment open model", "settings": "in vivo"}, "[5]": {"assay": "Plasma concentration in healthy subject (7 subjects) at 50 mg, po administered as single dose measured after 9 hrs by gas chromatography", "settings": "human"}, "[6]": {"tested_on": "Homo sapiens", "assay": "First order inter-compartment transfer rate constant from deep tissue to central compartment in healthy subject (7 subjects) at 50 mg, iv by three compartment open model", "settings": "in vivo"}, "[7]": {"assay": "Oral bioavailability in healthy subject (7 subjects) at 50 mg administered as single dose", "settings": "human, in vivo"}, "[8]": {"assay": "Plasma concentration in healthy subject (7 subjects) at 50 mg, po administered as single dose measured after 6.5 hrs by gas chromatography", "settings": "human"}, "[9]": {"tested_on": "Homo sapiens", "assay": "First order inter-compartment transfer rate constant from central to tissue compartment in healthy subject (7 subjects) at 50 mg, iv by three compartment open model", "settings": "in vivo"}, "[10]": {"assay": "Plasma concentration in healthy subject (7 subjects) at 50 mg, po administered as single dose measured after 3.5 hrs by gas chromatography", "settings": "human"}, "[11]": {"assay": "Plasma concentration in healthy subject (7 subjects) at 50 mg, po administered as single dose measured after 7 hrs by gas chromatography", "settings": "human"}, "[12]": {"assay": "Plasma concentration in healthy subject (7 subjects) at 50 mg, po administered as single dose measured after 5 hrs by gas chromatography", "settings": "human"}, "[13]": {"assay": "Plasma concentration in healthy subject (7 subjects) at 50 mg, po administered as single dose measured after 1 hr by gas chromatography", "settings": "human"}, "[14]": {"assay": "Terminal half life in healthy subject (7 subjects) at 50 mg, iv by three compartment open model", "settings": "human, in vivo, read-out: beta t1/2 (converted)"}, "[15]": {"tested_on": "Homo sapiens", "assay": "First order inter-compartment transfer rate constant from central to deep tissue compartment in healthy subject (7 subjects) at 50 mg, iv by three compartment open model", "settings": "in vivo"}, "[16]": {"assay": "Cmax in healthy subject (7 subjects) at 50 mg, po administered as single dose", "design": "dose 50 mg, route oral", "settings": "human, in vivo"}, "[17]": {"assay": "Total volume of distribution in healthy subject (7 subjects) at 50 mg, iv by three compartment open model", "settings": "human, in vivo"}, "[18]": {"assay": "Plasma concentration in healthy subject (7 subjects) at 50 mg, po administered as single dose measured after 2 hrs by gas chromatography", "settings": "human"}, "[19]": {"assay": "Plasma clearance in healthy subject (7 subjects) at 50 mg, iv by three compartment open model", "settings": "human"}, "[20]": {"assay": "Plasma concentration in healthy subject (7 subjects) at 50 mg, po administered as single dose measured after 1.5 hrs by gas chromatography", "settings": "human"}, "[21]": {"assay": "Plasma concentration in healthy subject (7 subjects) at 50 mg, po administered as single dose measured after 3 hrs by gas chromatography", "settings": "human"}, "[22]": {"assay": "AUC (0 to infinity) in healthy subject (7 subjects) at 50 mg, po administered as single dose", "design": "dose 50 mg, route oral, time infinity", "settings": "human, in vivo"}, "[23]": {"assay": "Cmax in healthy subject (7 subjects) at 50 mg, iv measured after 5 mins", "design": "dose 50 mg, route intravenous", "settings": "human, in vivo"}, "[24]": {"assay": "Plasma concentration in healthy subject (7 subjects) at 50 mg, po administered as single dose measured after 8 hrs by gas chromatography", "settings": "human"}, "[25]": {"assay": "Terminal half life in healthy subject (7 subjects) at 50 mg, po administered as single dose", "settings": "human, in vivo, read-out: beta t1/2 (converted)"}, "[26]": {"assay": "Plasma concentration in healthy subject (7 subjects) at 50 mg, po administered as single dose measured after 4 hrs by gas chromatography", "settings": "human"}, "[27]": {"assay": "Plasma concentration in healthy subject (7 subjects) at 50 mg, po administered as single dose measured after 2.5 hrs by gas chromatography", "settings": "human"}, "[28]": {"assay": "Plasma concentration in healthy subject (7 subjects) at 50 mg, po administered as single dose measured after 6 hrs by gas chromatography", "settings": "human"}, "[29]": {"assay": "Elimination rate constant in healthy subject (7 subjects) at 50 mg, po administered as single dose", "settings": "human, in vivo"}, "[30]": {"assay": "Plasma concentration in healthy subject (7 subjects) at 50 mg, po administered as single dose measured after 5.5 hrs by gas chromatography", "settings": "human"}, "[31]": {"tested_on": "Homo sapiens", "assay": "Tlag in healthy subject (7 subjects) at 50 mg, po administered as single dose", "settings": "in vivo"}, "[32]": {"assay": "Elimination rate constant in healthy subject (7 subjects) at 50 mg, iv by three compartment open model", "settings": "human, in vivo"}, "[33]": {"assay": "AUC (0 to infinity) in healthy subject (7 subjects) at 50 mg, iv by three compartment open model", "design": "dose 50 mg, route intravenous, time infinity", "settings": "human, in vivo"}, "[34]": {"assay": "Plasma concentration in healthy subject (7 subjects) at 50 mg, po administered as single dose measured after 4.5 hrs by gas chromatography", "settings": "human"}},
  "data": [
    {"smiles": "O=C([O-])Cc1ccccc1Nc1c(Cl)cccc1Cl.[Na+]", "note": "[DICLOFENAC SODIUM]", "values": [
      {"measurement": "half-life", "setting": "[1]", "result": 0.26, "unit": "h"},
      {"measurement": "Tmax", "setting": "[2]", "result": 2.5, "unit": "h"},
      {"measurement": "K", "setting": "[3]", "result": 5.2, "unit": "h⁻¹"},
      {"measurement": "t1/2", "setting": "[4]", "result": 3, "unit": "min"},
      {"measurement": "concentration at 9 h", "setting": "[5]", "result": 3, "unit": "ng/mL"},
      {"measurement": "K", "setting": "[6]", "result": 0.8, "unit": "h⁻¹"},
      {"measurement": "bioavailability", "setting": "[7]", "result": 54, "unit": "%"},
      {"measurement": "concentration at 6.5 h", "setting": "[8]", "result": 25, "unit": "ng/mL"},
      {"measurement": "K", "setting": "[9]", "result": 5.5, "unit": "h⁻¹"},
      {"measurement": "concentration at 3.5 h", "setting": "[10]", "result": 240, "unit": "ng/mL"},
      {"measurement": "concentration at 7 h", "setting": "[11]", "result": 15, "unit": "ng/mL"},
      {"measurement": "concentration at 5 h", "setting": "[12]", "result": 95, "unit": "ng/mL"},
      {"measurement": "concentration at 1 h", "setting": "[13]", "result": 200, "unit": "ng/mL"},
      {"measurement": "half-life", "setting": "[14]", "result": 1.1, "unit": "h"},
      {"measurement": "K", "setting": "[15]", "result": 2.6, "unit": "h⁻¹"},
      {"measurement": "Cmax", "setting": "[16]", "result": 2000, "unit": "ng/mL"},
      {"measurement": "Vd", "setting": "[17]", "result": 0.172, "unit": "L/kg"},
      {"measurement": "concentration at 2 h", "setting": "[18]", "result": 860, "unit": "ng/mL"},
      {"measurement": "clearance", "setting": "[19]", "result": 263, "unit": "mL/min"},
      {"measurement": "concentration at 1.5 h", "setting": "[20]", "result": 100, "unit": "ng/mL"},
      {"measurement": "concentration at 3 h", "setting": "[21]", "result": 690, "unit": "ng/mL"},
      {"measurement": "AUC(0-inf)", "setting": "[22]", "result": 1670, "unit": "ng·h/mL"},
      {"measurement": "Cmax", "setting": "[23]", "result": 7800, "unit": "ng/mL"},
      {"measurement": "concentration at 8 h", "setting": "[24]", "result": 11, "unit": "ng/mL"},
      {"measurement": "half-life", "setting": "[25]", "result": 1.8, "unit": "h"},
      {"measurement": "concentration at 4 h", "setting": "[26]", "result": 110, "unit": "ng/mL"},
      {"measurement": "concentration at 2.5 h", "setting": "[27]", "result": 710, "unit": "ng/mL"},
      {"measurement": "concentration at 6 h", "setting": "[28]", "result": 35, "unit": "ng/mL"},
      {"measurement": "k el", "setting": "[29]", "result": 0.000183, "unit": "s⁻¹"},
      {"measurement": "concentration at 5.5 h", "setting": "[30]", "result": 54, "unit": "ng/mL"},
      {"measurement": "Tlag", "setting": "[31]", "result": 1.9, "unit": "h"},
      {"measurement": "k el", "setting": "[32]", "result": 0.00236, "unit": "s⁻¹"},
      {"measurement": "AUC(0-inf)", "setting": "[33]", "result": 3290, "unit": "ng·h/mL"},
      {"measurement": "concentration at 4.5 h", "setting": "[34]", "result": 215, "unit": "ng/mL"}
    ]}
  ]
}
